Assay results published in US20240158446A1, “CYCLIC COMPOUND HAVING SELECTIVE INHIBITORY ACTION ON KRAS OVER HRAS AND NRAS” (CHUGAI SEIYAKU KABUSHIKI KAISHA, priority 2021, published 2024).
Where two headings read alike, the source gives them in different places. Where a SMILES comes first, the peptide text is derived from it. Bridges are numbered along the chain shown (N, C = ends). [ ]: non-standard residue; d: D form. The star is where a group is joined. hPhe(3-Cl-4-CF3) = N[C@@H](CCc1ccc(C(F)(F)F)c(Cl)c1)C(=O)O; NPrPhe(4-CF3) = CCCN[C@@H](Cc1ccc(C(F)(F)F)cc1)C(=O)O; NMeGly(cPent) = CN[C@H](C(=O)O)C1CCCC1; Hyp = O=C(O)[C@@H]1C[C@@H](O)CN1; NMeD = CN[C@@H](CC(=O)O)C(=O)O; NMeL = CN[C@@H](CC(C)C)C(=O)O; Morpholide = C1CN(*)CCO1; NMeA = CN[C@@H](C)C(=O)O; Ac5c = NC1(C(=O)O)CCCC1; Aze = O=C(O)[C@@H]1CCN1; Ac4c = NC1(C(=O)O)CCC1; Sar = CNCC(=O)O

What was measured:
[1] = molecular target: GDP-bound HRAS wild-type protein (Homo sapiens, UniProt P01112); experiment: Binding to HRAS by surface plasmon resonance (SPR), Single Cycle Kinetics; conditions: for HRAS/KRAS (ratio of KD value with respect to GDP-bound HRAS wild-type protein to KD value with respect to KRAS): SPR KD ratio HRAS/KRAS, class symbols; for HRAS/KRAS (ratio of KD value for HRAS to KD value for KRAS) / HRAS/KRAS (ratio of KD value with respect to HRAS to KD value with respect to KRAS): SPR, GDP-bound HRAS wild-type protein vs GDP-bound KRAS wild-type protein
Sequence of GDP-bound HRAS wild-type protein (P01112 whole entry): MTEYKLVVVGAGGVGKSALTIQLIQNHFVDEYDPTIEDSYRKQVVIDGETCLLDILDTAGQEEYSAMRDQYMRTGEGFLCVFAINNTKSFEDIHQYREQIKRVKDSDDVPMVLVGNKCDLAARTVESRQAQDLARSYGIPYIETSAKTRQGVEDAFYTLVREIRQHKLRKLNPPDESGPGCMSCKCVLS

[2] = molecular target: GDP-bound NRAS wild-type protein (Homo sapiens, UniProt P01111); experiment: Binding to NRAS by surface plasmon resonance (SPR), Single Cycle Kinetics; conditions: for NRAS/KRAS (ratio of KD value with respect to GDP-bound NRAS wild-type protein to KD value with respect to KRAS): SPR KD ratio NRAS/KRAS, class symbols; for NRAS/KRAS (ratio of KD value for NRAS to KD value for KRAS) / NRAS/KRAS (ratio of KD value with respect to NRAS to KD value with respect to KRAS): SPR, GDP-bound NRAS wild-type protein vs GDP-bound KRAS wild-type protein
Sequence of GDP-bound NRAS wild-type protein (P01111 whole entry): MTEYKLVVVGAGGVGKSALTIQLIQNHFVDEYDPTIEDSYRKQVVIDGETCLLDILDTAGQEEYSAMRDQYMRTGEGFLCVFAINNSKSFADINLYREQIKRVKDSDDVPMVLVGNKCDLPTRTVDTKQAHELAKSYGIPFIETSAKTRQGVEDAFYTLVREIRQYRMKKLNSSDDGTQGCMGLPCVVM

[3] = molecular target: GDP-bound KRAS wild-type protein (Homo sapiens, UniProt P01116); experiment: Binding to KRAS by surface plasmon resonance (SPR), Single Cycle Kinetics; conditions: GDP-bound KRAS wild-type protein, read-out: KRAS KD
Sequence of GDP-bound KRAS wild-type protein (P01116 whole entry): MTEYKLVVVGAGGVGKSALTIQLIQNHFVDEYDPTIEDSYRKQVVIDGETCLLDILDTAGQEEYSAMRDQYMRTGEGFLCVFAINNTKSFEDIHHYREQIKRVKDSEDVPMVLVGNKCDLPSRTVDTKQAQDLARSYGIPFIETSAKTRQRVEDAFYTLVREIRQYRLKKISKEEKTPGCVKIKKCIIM

[4] = SPR Single Cycle Kinetics, 1:1 binding model

Compound	HRAS/KRAS (ratio of KD value with respect to GDP-bound HRAS wild-type protein to KD value with respect to KRAS) [1]	NRAS/KRAS (ratio of KD value with respect to GDP-bound NRAS wild-type protein to KD value with respect to KRAS) [2]	Kd [3, 4] [nM]	HRAS/KRAS (ratio of KD value for HRAS to KD value for KRAS) [1]	NRAS/KRAS (ratio of KD value for NRAS to KD value for KRAS) [2]	Kd ([3]; SPR, Single Cycle Kinetics) [nM]	HRAS/KRAS (ratio of KD value with respect to HRAS to KD value with respect to KRAS) [1]	NRAS/KRAS (ratio of KD value with respect to NRAS to KD value with respect to KRAS) [2]
C#CC[C@H]1C(=O)N[C@@H]([C@@H](C)CC)C(=O)N(C)CC(=O)N(C)[C@H]2C/C=C\CCN(C2=O)[C@@H](Cc2ccc(C(F)(F)F)cc2)C(=O)N(C)CC(=O)N[C@@H](CCc2ccc(C(F)(F)F)c(OC)c2)C(=O)N2CCOC[C@H]2C(=O)NC2(CC(C)(C)C2)C(=O)N(C)[C@@H](C2CCCC2)C(=O)N(C)[C@H](C(=O)N(C)C)CC(=O)N1C [PP2905]	A (a compound having 10 or more and less than 20 is denoted as A)	AA (a compound having 20 or more is denoted as AA)	0.24					
CCCN1C(=O)CN(C)C(=O)CN(C)C(=O)[C@H]([C@@H](C)CC)NC(=O)[C@H](CC(C)C)N(C)C(=O)C[C@@H](C(=O)N2CCOCC2)N(C)C(=O)[C@H](C2CCCC2)N(C)C(=O)C2(CCCC2)NC(=O)[C@@H]2CCCN2C(=O)[C@H](CCc2ccc(C(F)(F)F)c(Cl)c2)NC(=O)CN(C)C(=O)[C@@H]1Cc1ccc(C(F)(F)F)cc1 [PP0060] ([NMeL]I[Sar][Sar][NPrPhe(4-CF3)][Sar][hPhe(3-Cl-4-CF3)]P[Ac5c][NMeGly(cPent)][NMeD]-Morpholide; lactam N-11)			0.099	B (a compound having 3 or more and less than 10 is denoted as B)	B (a compound having 3 or more and less than 10 is denoted as B)			
CC[C@H](C)[C@@H]1NC(=O)[C@H](CC(C)C)N(C)C(=O)C[C@@H](C(=O)N2CCOCC2)N(C)C(=O)[C@H](C2CCCC2)N(C)C(=O)C2(CCC2)NC(=O)[C@@H]2CCCN2C(=O)[C@H](CCc2ccc(C(F)(F)F)c(Cl)c2)NC(=O)CN(C)C(=O)[C@H](Cc2ccc(F)cc2)N2CCCCC[C@@H](C2=O)N(C)C(=O)CN(C)C1=O [PP0967]				B (a compound having 3 or more and less than 10 is denoted as B)	B (a compound having 3 or more and less than 10 is denoted as B)	0.33		
CCC[C@H]1C(=O)N[C@@H]([C@@H](C)CC)C(=O)N(C)CC(=O)N(C)[C@H]2C/C=C\CCN(C2=O)[C@@H](Cc2ccc(C(F)(F)F)cc2)C(=O)N(C)CC(=O)N[C@@H](CCc2cc(Cl)c3sccc3c2)C(=O)N2C[C@H](OCC)C[C@H]2C(=O)NC2(CC(C)(C)C2)C(=O)N(C)[C@@H](C2CCCC2)C(=O)N(C)[C@H](C(=O)N(C)C)CC(=O)N1C [PP2946]	A (a compound having 10 or more and less than 20 is denoted as A)	A (a compound having 10 or more and less than 20 is denoted as A)	0.052					
C#CC[C@H]1C(=O)N[C@@H]([C@@H](C)CC)C(=O)N(C)CC(=O)N(C)[C@H]2C/C=C\CCN(C2=O)[C@@H](Cc2ccc(C(F)(F)F)cc2)C(=O)N(C)CC(=O)N[C@@H](CCc2ccc(C(F)(F)F)c(OC)c2)C(=O)N2C[C@H](OCC)C[C@H]2C(=O)NC2(CC(C)(C)C2)C(=O)N(C)[C@@H](C2CCCC2)C(=O)N(C)[C@H](C(=O)N(C)CC)CC(=O)N1C [PP2051]				A (a compound having 10 or more and less than 20 is denoted as A)	A (a compound having 10 or more and less than 20 is denoted as A)	0.12		
CCO[C@@H]1C[C@H]2C(=O)NC3(CCC3)C(=O)N(C)[C@@H](C3CCCC3)C(=O)N(C)[C@H](C(=O)N3CCOCC3)CC(=O)N(C)[C@@H](CC(C)C)C(=O)N[C@@H]([C@@H](C)CC)C(=O)N(C)CC(=O)N(C)[C@H]3CCCCN(C3=O)[C@@H](Cc3ccc(C(F)(F)F)cc3)C(=O)N(C)CC(=O)N[C@@H](CCc3cc(F)c(C(F)(F)F)c(F)c3)C(=O)N2C1 [PP0578]			0.029				B (a compound having 3 or more and less than 10 is denoted as B)	B (a compound having 3 or more and less than 10 is denoted as B)
CCCN1C(=O)CN(C)C(=O)CN(C)C(=O)[C@H]([C@@H](C)CC)NC(=O)[C@H](CC(C)C)N(C)C(=O)C[C@@H](C(=O)N(C)C)NC(=O)[C@H](C2CCCC2)N(C)C(=O)C2(CCC2)NC(=O)[C@@H]2C[C@@H](OCC)CN2C(=O)[C@H](CCc2ccc(C(F)(F)F)c(Cl)c2)NC(=O)CN(C)C(=O)[C@@H]1Cc1ccc(C(F)(F)F)cc1 [PP0360] ([NMeL]I[Sar][Sar][NPrPhe(4-CF3)][Sar][hPhe(3-Cl-4-CF3)][Hyp](Et)[Ac4c][NMeGly(cPent)]D-NMe2; lactam N-11)			0.25	C (A compound having a KD ratio of 0.1 or more and less than 3 is denoted as C)	B (a compound having 3 or more and less than 10 is denoted as B)			
C=CCC[C@H]1C(=O)N[C@@H]([C@@H](C)CC)C(=O)N(C)CC(=O)N(C)[C@H]2CCCCN(C2=O)[C@@H](Cc2ccc(C(F)(F)F)cc2)C(=O)N(C)CC(=O)N[C@@H](CCc2cc(F)c(C(F)(F)F)c(F)c2)C(=O)N2C[C@H](OCC)C[C@H]2C(=O)N[C@](C)(CC=C)C(=O)N(C)[C@@H](C2CCCC2)C(=O)N(C)[C@H](C(=O)N2CCOCC2)CC(=O)N1C [PP0875]				B (a compound having 3 or more and less than 10 is denoted as B)	C (A compound having a KD ratio of 0.1 or more and less than 3 is denoted as C)	0.096		
CC[C@H](C)[C@@H]1NC(=O)[C@H](CC)N(C)C(=O)C[C@@H](C(=O)N(C)C)N(CC)C(=O)[C@H](C2CCCC2)N(C)C(=O)C2(CCC2)NC(=O)[C@@H]2CCN2C(=O)[C@H](CCc2cc(F)c(C(F)(F)F)c(F)c2)NC(=O)CN(C)C(=O)[C@H](Cc2ccc(C(F)(F)F)cc2)N2CCCC[C@@H](C2=O)N(C)C(=O)CN(C)C1=O [PP0660]			0.29				B (a compound having 3 or more and less than 10 is denoted as B)	B (a compound having 3 or more and less than 10 is denoted as B)
CCCN1C(=O)CN(C)C(=O)CN(C)C(=O)[C@H]([C@@H](C)CC)NC(=O)[C@H](CC(C)C)N(C)C(=O)C[C@@H](C(=O)N2CCOCC2)N(C)C(=O)[C@H](C2CCCC2)N(C)C(=O)C2(CCC2)NC(=O)[C@@H]2C[C@@H](OCC)CN2C(=O)[C@H](CCc2ccc(C(F)(F)F)c(Cl)c2)NC(=O)CN(C)C(=O)[C@@H]1Cc1ccc(C(F)(F)F)cc1 [PP0392] ([NMeL]I[Sar][Sar][NPrPhe(4-CF3)][Sar][hPhe(3-Cl-4-CF3)][Hyp](Et)[Ac4c][NMeGly(cPent)][NMeD]-Morpholide; lactam N-11)			0.067	C (A compound having a KD ratio of 0.1 or more and less than 3 is denoted as C)	B (a compound having 3 or more and less than 10 is denoted as B)			
C#CC[C@H]1C(=O)N[C@@H]([C@@H](C)CC)C(=O)N(C)CC(=O)N(C)[C@H]2C/C=C\CCN(C2=O)[C@@H](Cc2ccc(C(F)(F)F)cc2)C(=O)N(C)CC(=O)N[C@@H](CCc2cc(F)c(C(F)(F)F)c(F)c2)C(=O)N2C[C@@H](C)C[C@H]2C(=O)NC2(CC(C)(C)C2)C(=O)N(C)[C@@H](C2CCCC2)C(=O)N(C)[C@H](C(=O)N(C)CC)CC(=O)N1C [PP2075]				A (a compound having 10 or more and less than 20 is denoted as A)	A (a compound having 10 or more and less than 20 is denoted as A)	0.22		
CCO[C@@H]1C[C@H]2C(=O)NC3(CC(C)(C)C3)C(=O)N(C)[C@@H](C3CCCC3)C(=O)N(C)[C@H](C(=O)N(C)C)CC(=O)N(C)[C@H]3CCCCCCc4ccc(cc4)C[C@@H](C(=O)N(C)CC(=O)N[C@@H](CCc4ccc(C(F)(F)F)c(OC)c4)C(=O)N2C1)N1CC/C=C\C[C@@H](C1=O)N(C)C(=O)CN(C)C(=O)[C@H]([C@@H](C)CC)NC3=O [PP3066]				B (a compound having 3 or more and less than 10 is denoted as B)	A (a compound having 10 or more and less than 20 is denoted as A)	0.042		
CCCN1C(=O)[C@@H]2CCN2C(=O)[C@H](C)N(C)C(=O)[C@H]([C@@H](C)CC)NC(=O)[C@H](CC(C)C)N(C)C(=O)C[C@@H](C(=O)N(C)C)NC(=O)[C@H](C2CCCC2)N(C)C(=O)C2(CCC2)NC(=O)[C@@H]2CCCN2C(=O)[C@H](CCc2ccc(C(F)(F)F)c(Cl)c2)NC(=O)CN(C)C(=O)[C@@H]1Cc1ccc(C(F)(F)F)cc1 [PP0380] ([NMeL]I[NMeA][Aze][NPrPhe(4-CF3)][Sar][hPhe(3-Cl-4-CF3)]P[Ac4c][NMeGly(cPent)]D-NMe2; lactam N-11)			0.59	B (a compound having 3 or more and less than 10 is denoted as B)	C (A compound having a KD ratio of 0.1 or more and less than 3 is denoted as C)			
CCCN1C(=O)[C@@H]2CCN2C(=O)CN(C)C(=O)[C@H]([C@@H](C)CC)NC(=O)[C@H](CC(C)C)N(C)C(=O)C[C@@H](C(=O)N(C)C)NC(=O)[C@H](C2CCCC2)N(C)C(=O)C2(CCCC2)NC(=O)[C@@H]2C[C@@H](OCC)CN2C(=O)[C@H](CCc2ccc(C(F)(F)F)c(Cl)c2)NC(=O)CN(C)C(=O)[C@@H]1Cc1ccc(C(F)(F)F)cc1 [PP0389] ([NMeL]I[Sar][Aze][NPrPhe(4-CF3)][Sar][hPhe(3-Cl-4-CF3)][Hyp](Et)[Ac5c][NMeGly(cPent)]D-NMe2; lactam N-11)			0.16	B (a compound having 3 or more and less than 10 is denoted as B)	C (A compound having a KD ratio of 0.1 or more and less than 3 is denoted as C)			
